Assay results reported in PMC9838834, “Improvement of Antialveolar echinococcosis efficacy of novel Albendazole-Bile acids Derivatives with Enhanced Oral Bioavailability” (PLOS Neglected Tropical Diseases, 2023).

Assays:
[1] = Determination of equilibrium solubility (HPLC); assay type: physicochemical; conditions: 48 h, pH 7.4
Protocol: An excess amount of ABZ-BA and ABZ were equilibrated in sodium phosphate buffer, pH 7.4, at 37°C for 48 h. The supernatant was separated from excess solid in solution by ultracentrifugation at 40000 rpm. Subsequently, the supernatant was diluted, and the solution concentration was determined using high-performance liquid chromatography (HPLC) (Shimadzu LC- 20AT, Kyoto, Japan). The chromatographic separation was performed with Diamonsil C18 (4.6×150 mm, 5 μm, Waters, Massachusetts, USA). ABZ-BA and ABZ were detected by ultraviolet (UV) absorbance detection at a wavelength of 240 nm. The mobile phase was methanol /water (70/30 v/v) and the flow rate was 1 mL/min. The injection volume was 20 μL.

protoscolex (PSCs) [2] = assay: Alkaline phosphatase in supernatant of PSC culture medium; assay type: cell-based, E. multilocularis; conditions: 5 days after treatment, same concentration as ABZ / ABZ-SO
protoscolex (PSCs) [3] = assay: Caspase 3 in supernatant of PSC culture medium; assay type: cell-based, E. multilocularis; conditions: 5 days after treatment
[4] = tested on: secondary hepatic alveolar echinococcosis (E. multilocularis); assay: In vivo therapeutic efficacy in an in-situ AE animal model (lesion volume); conditions: AE model rats
Protocol: Six-week-old […] weighing 200-250g were purchased from a market (Weitong Lihua Laboratory Animal Technology Co., Ltd, Beijing, China). The rats were injected with protoscolex (PSC) suspension (1000–2000) PSCs/mL×0.1 mL/each using the open-abdominal direct liver puncture method. The modeling quality was confirmed by Mindray’s Resona7 color Doppler ultrasound system. The lesion volume was calculated by the length (X) and width (Y) of its ultrasound transverse section and the width (Z) of its longitudinal section, X·Y·Z. Rats with relatively uniform lesion volumes were selected as model animals for further experiments (Fig 1). All animal-related experiments were approved by the Animal Care and Utilization Committee (IACUC) of Qinghai University. The animals were housed in a room with controlled temperature (25 ± 2°C) with light-cycled (12 h light/dark cycle). Food and water were provided ad libitum.
At the 16th week after establishing an experimental secondary AE in rats, we divided the model rats into three groups. The first is the control group, with six infected rats were received with CMC-Na of 0.9% saline. In the second group, rats were received with 0.2 mL of Albenda suspension. In the third group, rats were received with 0.2 mL of ABZ-BA suspension. The three groups were administered by gavage with the dosage of 25 mg/kg/d, which was calculated according to the equivalent dose convert ratio between humans and animals based on the surface body area of humans. After a 30-day, once-daily oral administration, the liver tissue lesions were obtained and weighed to evaluate the cyst inhibition rate after one month of administration.

Hep-G2 cell line = assay: Cytotoxicity in Hep-G2 cell line; assay type: cell-based, human; conditions: ABZ-BA with different carbon chain lengths (C1, C4 linker), data not shown
Text: Since this part of data will be published in other manuscripts, it is not shown in this manuscript.

[5] = Stability in rat plasma (UHPLC-MS method validation, S4 Table); assay type: in vitro ADME
Protocol: A Dionex Ultimate 3000 RSLC system (Thermofisher) combined with an Accucore aQ C18 column (150 mm×2.1 mm, 2.6 μm, Thermo fisher) was used in the sample separation process. The separation speed was set at […] for all gradients. 1 μL of injection volume and a constant temperature of (25 ± 1°C were set for the column. The eluents were A, water with 0.1% formic acid (v/v) and B, methanol; the gradient program was as follows: 0–6 min, 8–40% B; 6–8 min, 40–100% B; 8–10 min, 100% B; 10–11 min, 100–8% B; 11–13 min, 8% B.
Heated electro-spray ionization (HE-SI) was paired with a Q-Orbitrap MS in the MS analysis. The flow rate of auxiliary, sheath and sweep gas was set at 35, 10, and 1 (arbitrary unit), respectively. A full MS-ddMS^2 mode was used to perform the analysis. The damping gas in the C-trap and nitrogen was used to stabilize the spraying. Temperatures of 350°C and 320°C were set and kept for the auxiliary gas heater and capillary. Under negative mode, 3.0 kV was adopted for the spray voltage, 60 V was used for the S-lens RF level, 50 ms was used for the maximum injection time, and 3.0 ^e6 was set as the automatic gain control target. Full MS-ddMS^2 scan ranged from 150.0000 to 800.0000 m/z. Precise molecular weight […] was used for qualitative analysis, the corresponding peak area was used for quantitative analysis, and MS^2 fragments were used for further qualitative analysis.
Plasma samples were thawed at room temperature, and 100 μL was added to an equal volume of mass spectrometry grade methanol, vortexed for 1 min, and centrifuged again at 13000 rpm for 5 min. 100 μL of the supernatant were added to 100 μL of 200 ng/mL mebendazole IS solution, vortexed for 1 min, and centrifuged again at 13000 rpm for 5 min. The resulting sample was injected by UHPLC-HR-ESI-MS with an injection volume of 1 μL. The pharmacokinetic study of SD rats was performed according to the standards recommended by the "Guidelines for the Care and Use of Laboratory Animals" (Animal Laboratory Resources Institute, 1995) and was approved by the Institutional Animal Care and Use Committee of Qinghai University.
Supplementary file pntd.0011031.s004.xlsx: S4 Table The stability for the determination of total alkaloid in rat plasma. (XLSX) Click here for additional data file.

[6] = background statement; cited from earlier work
alveolar echinococcosis = tested on: alveolar echinococcosis; parameters: method as in PMID 18938096; conditions: AE patients; cited from earlier work
[7] = after 1 month of oral administration
[8] = nominal 1.58 (ABZ-BA) / 1.57 (ABZ) ng/mL
[9] = nominal 25.25 (ABZ-BA) / 25.18 (ABZ) ng/mL
[10] = nominal 101 (ABZ-BA) / 100.78 (ABZ) ng/mL

Which “equilibrium solubility of ABZ-BA relative to ABZ in vitro” value [1] does the source give for `CCCSc1ccc2[nH]c(NC(=O)NCCCCOC(=O)CCC(C)C3CCC4C5C(O)CC6CC(O)CCC6(C)C5CC(O)C34C)nc2c1` (centres unmarked) [ABZ-BA] here?
The value was 4 fold.

What about the “solubility of ABZ-BA relative to ABZ” value [1] of the same molecule?
Its value is “about 12 times”.

And the “ALP in supernatant of PSC culture medium vs positive control group” value (protoscolex (PSCs) [2])?
Its value is “no significant difference”.

What about the “content of caspase 3 in supernatant of PSC culture medium vs positive control group” value (protoscolex (PSCs) [3]) of the same molecule?
The value was “significantly higher”.

And the “apoptotic effect on PSCs, dependence on concentration” value (protoscolex (PSCs) [3]; 13.45-53.8 μg/mL)?
The value was “concentration-dependent”.

What about the lesion volume ([4]; 25 mg/kg/d by gavage, after 4 weeks of administration, n = 6, ultrasound X·Y·Z) of the same molecule?
Its lesion volume is 0.35±0.18 cm^3.

What about the “effect of ABZ-BA group relative to Albenda” value [4, 7] of the same molecule?
The value was 2.7 fold.

What about the therapeutic effect [4, 7] of the same molecule?
Its therapeutic effect is “significant therapeutic effect”.

And the “cytotoxicity compared with ABZ” value (Hep-G2 cell line)?
The value was “the same cytotoxicity as ABZ”.

Which results are given for `CCCSc1ccc2nc(NC(=O)OC)[nH]c2c1` [ABZ, Albendazole]?
Measured (mean ± SD), 4℃ for 24 h [5, 8]: 1.53 ± 0.08 ng/mL; Measured (mean ± SD), Room temperature for 24 h [5, 8]: 1.56 ± 0.13 ng/mL; Measured (mean ± SD), Three freeze [5, 8]: 1.59 ± 0.15 ng/mL; Measured (mean ± SD), at -80℃ for 15 days [5, 8]: 1.56 ± 0.07 ng/mL; Measured (mean ± SD), 4℃ for 24 h [5, 9]: 25.65 ± 0.53 ng/mL; Measured (mean ± SD), Room temperature for 24 h [5, 9]: 24.87 ± 0.34 ng/mL; Measured (mean ± SD), Three freeze [5, 9]: 25.56 ± 0.56 ng/mL; Measured (mean ± SD), at -80℃ for 15 days [5, 9]: 25.34 ± 1.18 ng/mL; Measured (mean ± SD), 4℃ for 24 h [5, 10]: 104.63 ± 2.81 ng/mL; Measured (mean ± SD), Room temperature for 24 h [5, 10]: 98.90 ± 3.53 ng/mL; Measured (mean ± SD), Three freeze [5, 10]: 106.20 ± 1.36 ng/mL; Measured (mean ± SD), at -80℃ for 15 days [5, 10]: 108.56 ± 1.18 ng/mL; oral bioavailability [6]: < 5%; clinical improvement after administration (alveolar echinococcosis): two-thirds of AE patients show moderate improvement
